ChEMBL document CHEMBL1125884, “Synthesis and biochemical studies of 16- or 19-substituted androst-4-enes as aromatase inhibitors” (J Med Chem, 1991)

Assays:
Aromatase [1] = biological target: T1, Aromatase (Homo sapiens, UniProt P11511); assay: Binding affinity for human placental microsome cytochrome P450 19A1 with 1 uM [1-beta-3H]-androstenedione
T1 sequence (P11511 whole entry): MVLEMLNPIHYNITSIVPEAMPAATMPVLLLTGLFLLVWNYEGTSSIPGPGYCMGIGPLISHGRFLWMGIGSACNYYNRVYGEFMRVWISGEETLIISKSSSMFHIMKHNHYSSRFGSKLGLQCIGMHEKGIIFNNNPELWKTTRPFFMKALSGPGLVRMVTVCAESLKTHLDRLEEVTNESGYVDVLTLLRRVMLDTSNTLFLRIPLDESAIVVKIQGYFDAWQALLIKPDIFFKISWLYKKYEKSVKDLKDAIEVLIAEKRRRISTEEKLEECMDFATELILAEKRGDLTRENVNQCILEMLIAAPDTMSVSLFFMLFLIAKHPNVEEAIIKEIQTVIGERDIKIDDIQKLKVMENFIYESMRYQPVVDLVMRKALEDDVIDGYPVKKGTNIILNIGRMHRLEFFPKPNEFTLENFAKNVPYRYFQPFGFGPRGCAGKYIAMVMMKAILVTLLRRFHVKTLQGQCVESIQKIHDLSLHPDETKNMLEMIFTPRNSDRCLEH

Aromatase [2] = biological target: T1, Aromatase
Description: Inhibition of 1 uM [1-beta-3H]-androstenedione binding to human placental microsome Cytochrome P450 19A1

SMILES | Ki (Aromatase [1]) [nM] | IC50 (Aromatase [2]) [nM]
C[C@]12CC[C@H]3[C@@H](CCC4=CCCC[C@@]43CO)[C@@H]1CCC2=O | 13 | 270
C[C@]12CC[C@H]3[C@@H](CCC4=CCCC[C@@]43C(F)F)[C@@H]1CC[C@@H]2O | – | 26000
CC(=O)OCC12CCCC=C1CCC1C2CCC2(C)C(OC(C)=O)CCC12 (centres undefined) | – | 38000
CC12CCCC=C1CCC1C2CCC2(C)C(O)CCC12 (centres undefined) | 830 | 7300
CC12CCC3C(CCC4=CCCCC43CO)C1CCC2O (centres undefined) | 170 | 2300
CC(=O)OCC12CCCC=C1CCC1C2CCC2(C)C(O)CCC12 (centres undefined) | – | 44000
CC12CCC3C(CCC4=CCCCC43C)C1C[C@H](Br)C2=O (some centres undefined) | 455 | 5900
CC(=O)OC1CCC2C3CCC4=CCCCC4(CO)C3CCC12C (centres undefined) | – | 100000
C#CC(O)C12CCCC=C1CCC1C3CCC(=O)C3(C)CCC12 (centres undefined) | 7750 | 62000
CC12CCC3C(CCC4=CCCCC43C)C1C[C@@H](Br)C2=O (some centres undefined) | 228 | 4100
CC12CCC3C(CCC4=CCCCC43C(F)F)C1CCC2=O (centres undefined) | 443 | 1200
C[C@]12CCC(=O)C(O)=C1CC[C@@H]1[C@@H]2CC[C@]2(C)C(=O)CC[C@@H]12 [FORMESTANE] | – | 410
